Experimental data from US20030040012A1, “Method of detecting protein-protein interaction” (priority 2000, published 2003).

What was measured:
Type in all cases: cell-based
Npw38 = assay: Npw38-NpwBP binding detection by intracellular localization of GFP fluorescence in COS7 cells; settings: co-introduced with Npw38 expression vector, fluorescence microscopy
Method: (§1) Monkey kidney-derived, cultured cell COS7 was incubated in a 10% fetal calf serum-containing Dulbecco's modified Eagle's medium (DMEM) in the presence of 5% CO2 at 37° C. COS7 cells of 1=10^5 were placed in a 6-well plate (from Nunk, having a well diameter of 3 cm), and further incubated therein in the presence of 5% CO2 at 37° C. for 22 hours. After the medium was removed, the cell sur were washed with a phosphate buffer solution (PBS), and then further washed with a 50 mM Tris-HCl (pH 7.5)-containing DMEM. To these cells, added was a suspension comprising 1 μl of a plasmid suspension, 0.6 ml of DMEM and 3 μl of TRANSFECTAM™ (from IBF), and incubated in the presence of 5% CO2 at 37° C. for 12 hours. Then, the cells were washed with PBS, and fixed with 4% peraformaldehyde-containing PBS at room temperature for 10 minutes. The thus-fixed cells were washed with PBS, then treated with 0.2% Triton X-100, and thereafter blocked with 5% milk PBS. This was reacted with an anti-HA antibody for 45 minutes, then washed with PBS, and reacted with a rhodamine-binding secondary antibody for 45 minutes.
Fusion protein HA-Npw38 (A. Komuro et al., J. Biol. Chem., 274: 36513-36519, 1999) was used. This is a fusion protein A-X in which X is Npw38 and A is HA tag. […] Also used were fusion proteins NpwBP(P1)-GFP and NpwBP(P2)-GFP. These are fusion proteins Y-B in which Y is a proline-rich region of NpwBP and B is GFP. In these, P1 contains amino acid residues of from 190th valine to 210th glutamine in SEQ ID NO: 2; and P2 contains amino acid residues of from 401st glutamine to 541st isoleucine in Seq ID NO: 2.
First, pKA1-NpwBP(P1)-GFP or pKA1-NpwBP(P2)-GFP was singly introduced into COS7 cells, and the localization of these fusion proteins in the cells was checked through fluorescence microscopy based on the green fluorescence of GFP as the index thereof. […] In this stage, the cells were immunostained with an antibody against the tag to check the localization of the fusion protein HA-Npw38. This verified the localization of the fusion protein in the nucleus of each cell (FIG. 3c).

NpwBP = target: T1, NpwBP (Homo sapiens, UniProt Q9Y2W2); assay: Contrary system: NpwBP co-expressed with Npw38(ΔC)-GFP in COS7 cells, GFP localization
T1 construct: expressed in transfected cells; host or cells: COS7 (monkey kidney)
T1 sequence (Q9Y2W2 1-641): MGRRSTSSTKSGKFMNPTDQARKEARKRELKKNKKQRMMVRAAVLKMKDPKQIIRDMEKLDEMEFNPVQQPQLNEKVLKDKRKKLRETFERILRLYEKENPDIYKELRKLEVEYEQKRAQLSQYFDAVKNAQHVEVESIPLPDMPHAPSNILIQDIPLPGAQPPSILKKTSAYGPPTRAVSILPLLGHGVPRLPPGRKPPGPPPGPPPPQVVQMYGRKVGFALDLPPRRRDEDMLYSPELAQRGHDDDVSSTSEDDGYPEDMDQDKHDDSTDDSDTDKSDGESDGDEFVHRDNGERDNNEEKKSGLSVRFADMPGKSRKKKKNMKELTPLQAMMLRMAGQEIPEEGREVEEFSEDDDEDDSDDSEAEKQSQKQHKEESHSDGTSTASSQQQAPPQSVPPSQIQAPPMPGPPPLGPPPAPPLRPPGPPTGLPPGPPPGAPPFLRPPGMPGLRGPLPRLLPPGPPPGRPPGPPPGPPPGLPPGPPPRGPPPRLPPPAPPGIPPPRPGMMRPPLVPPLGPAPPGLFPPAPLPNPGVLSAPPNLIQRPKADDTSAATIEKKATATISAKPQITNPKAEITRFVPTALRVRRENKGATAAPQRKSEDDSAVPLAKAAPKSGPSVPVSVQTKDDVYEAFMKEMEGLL
Method: as §1
Systems contrary to those in the above (3) were tried.

NpwBP(P2)-Bcl-XL = target: T2, NpwBP(P2)-Bcl-XL (Homo sapiens, UniProt Q07817+Q9Y2W2); assay: Application of mitochondrial localization signal: co-expression with NpwBP(P2)-Bcl-XL in COS7 cells; settings: mitochondrial region detected with anti-human mitochondrial antibody
T2 construct: expressed in transfected cells; host or cells: COS7 (monkey kidney)
Method: as §1, with “45 minutes. […]” for “45 minutes.”
However, when the fusion protein NpwBP(P2)Bcl-XL was co-expressed therein, the mitochondrial region of each cell also gave the fluorescence (FIG. 4). The mitochondrial region in each cell was detected through immunostaining with an anti-human mitochondrial antibody (Leinco Technologies, Inc.). […]

T2 sequence (Q9Y2W2+Q07817 fused): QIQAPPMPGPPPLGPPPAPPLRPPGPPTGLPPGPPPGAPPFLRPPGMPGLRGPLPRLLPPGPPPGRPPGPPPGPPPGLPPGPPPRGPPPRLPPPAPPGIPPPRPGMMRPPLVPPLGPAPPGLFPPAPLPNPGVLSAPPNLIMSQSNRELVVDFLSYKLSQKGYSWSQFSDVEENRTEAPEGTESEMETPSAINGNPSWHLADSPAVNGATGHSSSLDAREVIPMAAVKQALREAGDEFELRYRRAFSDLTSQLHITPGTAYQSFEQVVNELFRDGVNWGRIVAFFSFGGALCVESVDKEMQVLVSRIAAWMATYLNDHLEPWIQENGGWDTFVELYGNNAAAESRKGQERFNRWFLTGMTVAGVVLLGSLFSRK

localization of the green fluorescence on co-expression with NpwBP (NpwBP) | Substance | localization of the green fluorescence on co-expression with Npw38 (Npw38) | localization of the fluorescence on co-expression with NpwBP(P2)-Bcl-XL (NpwBP(P2)-Bcl-XL)
 | GFP: green fluorescent protein, expressed in place of NpwBP-GFP as control [reference compound] | no intranuclear localization | 
move in the nucleus | Npw38(ΔC)-GFP: fusion protein in which the nuclear localization signal in Npw38 was deleted, fused to GFP |  | localized also in the mitochondrial region
 | NpwBP(P1)-GFP: fusion protein of proline-rich region P1 of NpwBP (residues 190-210 of SEQ ID NO: 2) and GFP | localized in the nucleus | 
 | NpwBP(P2)-GFP: fusion protein of proline-rich region P2 of NpwBP (residues 401-541 of SEQ ID NO: 2) and GFP | localized in the nucleus | 
